Test results taken from patent publication US20210355107A1, “MULTI-SUBSTITUTED PYRIDONE DERIVATIVES AND MEDICAL USE THEREOF” (Beijing Yuezhikangtai Biomedicines Co., Ltd., priority 2018, published 2021).

Columns and labels:
[1] = target: T1, kinase Axl (Homo sapiens, UniProt P30530); test: Mobility shift assay, inhibitory activity against kinase Axl; assay type: biochemical; conditions: ATP at Km (81 μM), average of two independent experiments
T1 construct: purchased Carna 08-107
T1 sequence (P30530 473-894 limits assumed): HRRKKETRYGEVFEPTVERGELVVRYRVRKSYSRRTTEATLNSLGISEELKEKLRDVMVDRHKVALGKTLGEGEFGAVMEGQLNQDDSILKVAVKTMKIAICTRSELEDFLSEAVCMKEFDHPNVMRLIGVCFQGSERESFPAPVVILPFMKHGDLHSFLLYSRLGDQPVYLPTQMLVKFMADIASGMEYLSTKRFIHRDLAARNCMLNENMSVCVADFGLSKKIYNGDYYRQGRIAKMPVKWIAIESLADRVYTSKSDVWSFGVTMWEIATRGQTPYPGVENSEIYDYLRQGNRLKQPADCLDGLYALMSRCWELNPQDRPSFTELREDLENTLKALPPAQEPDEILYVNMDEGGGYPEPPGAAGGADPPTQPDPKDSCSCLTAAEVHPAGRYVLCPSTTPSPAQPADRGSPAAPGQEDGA
Protocol: (§1) In this test, mobility shift assay was used to test the inhibitory activity of compounds when ATP concentrations correspond to the Km of the kinases.
(§2) The concentration of test compound was 10-fold diluted from an initial concentration of 10 μM. The test result (IC50) was the average of two independent experiments.
(§3) For example, a compound at an initial concentration of 10 μM was adjusted to 500 μM with 100% DMSO, then serially diluted for 10 concentrations, and then subjected to 10-fold dilution with the buffer to prepare a diluted compound intermediate containing 10% DMSO, 5 μL of which was transferred to the 384-well plate.
(§4) 10 μL of the two enzyme solutions each was added to the 384-well plate and co-incubated with the compound for 10-15 min at room temperature.
(§5) 10 μL of the diluted substrate was added to the 384-well plate to initiate the reaction, which lasts for 1 h at 28° C.
(§6) 5) The conversion rate was read by Caliper Reader (Perkin Elmer) and the inhibition rate was calculated as the average of two tests.
(§7) 6) IC50 values were fitted with XL-fit software.

[2] = target: T2, kinase c-MET (Homo sapiens, UniProt P08581); test: Mobility shift assay, inhibitory activity against kinase c-MET; assay type: biochemical; conditions: ATP at Km (35 μM), average of two independent experiments
T2 construct: purchased Carna 08-151
T2 sequence (P08581 956-1390 limits assumed): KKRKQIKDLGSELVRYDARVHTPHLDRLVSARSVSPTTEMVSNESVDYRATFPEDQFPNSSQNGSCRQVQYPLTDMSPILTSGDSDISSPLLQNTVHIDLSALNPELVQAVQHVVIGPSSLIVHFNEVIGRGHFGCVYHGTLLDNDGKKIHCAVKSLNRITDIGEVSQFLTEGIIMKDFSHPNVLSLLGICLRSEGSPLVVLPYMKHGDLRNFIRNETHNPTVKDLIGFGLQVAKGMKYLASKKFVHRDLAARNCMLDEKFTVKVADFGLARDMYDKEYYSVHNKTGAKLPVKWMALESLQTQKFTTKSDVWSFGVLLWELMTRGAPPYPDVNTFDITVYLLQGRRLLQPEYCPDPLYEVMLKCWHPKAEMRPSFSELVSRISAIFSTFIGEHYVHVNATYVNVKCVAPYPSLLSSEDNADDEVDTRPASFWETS
Protocol: as §1, §2, §3, §4, §5, §6, §7

[3] = tested on: EBC-1 cells; test: EBC-1 cell proliferation, CellTiter-Glo Luminescent Cell Viability Assay; assay type: cell-based; conditions: Homo sapiens, 72 h incubation, read-out: IC50 (nM) against EBC-1 cells
Protocol: Test Example 3: Inhibitory Activity of Compounds disclosed herein against EBC-1 Cells
Test method: the inhibitory activity of the compounds against EBC-1 cell proliferation was evaluated using CellTiter-Glo® Luminescent Cell Viability Assay Kit (Promega).
Test procedures: when thawing EBC-1 cells, the cell cryopreservation tube was shaken rapidly in a water bath at 37° C. to thaw the cells in 1 min. The cell suspension after thawing was mixed with RPMI1640 culture medium containing 10% FBS and centrifuged for 5 min at 1000 rpm, and the supernatant was discarded. The cell pellet was suspended in 5 mL of complete culture medium. The suspension was placed in a cell culture flask with a bottom area of 25 cm^2, and cultured in a cell incubator at 37° C./95% humidity/5% CO2. Cell passage was performed when cell confluence reached about 80%. When the cells were passaged, the original cell suspension was directly made uniform by pipetting. 1/6 of the cell suspension was kept, added with 5 mL of new complete culture medium and then made uniform by pipetting. The cell culture flask was then placed in a cell incubator for further culturing. Cell plating was performed when the cell confluence reached about 80% again. With reference to the method for cell passage, 1/6 cell suspension was kept for further culturing when the cells were plated, and the remaining 5/6 of cell suspension was placed in a 15 mL centrifuge tube. Cell viability was detected by trypan blue exclusion using an IC1000 cell counter (Countstar) to ensure that cell viability was above 90%. Cell suspension at a density of 3.33×10^4 viable cells/mL was prepared using complete culture medium, and 90 μL of the cell suspension was added into 96-well cell culture plates, so that the cell density in the cell culture plates (day 0 plate and test compound plate) was 3000 viable cells/well. A control group that contains no cell or compound but only complete culture medium and a control group that contains no compound but cells were set. The cell plates were incubated overnight in a cell incubator. […] 10 μL of the above solution was added into a corresponding cell culture plate to ensure that the initial concentration of the compound was 10 μM, the dilution factor of adjacent concentration was 3.16, and the DMSO content in the cell culture plate was 0.1%. The cell plates were then incubated in the cell incubator for 72 h. During detection, CellTiter-Glo reagent (namely CellTiter-Glo® […] cell viability test reagent, Promega, Cat. No. G7572, Lot. No. 0000310975) was melted, and the cell plate was equilibrated at room temperature for 30 min. The cell plate was added with the CellTiter-Glo reagent at 100 μL per well, and then shaken on a QB-9001 microporous quick shaker (Kylin-Bell) for 5 min to fully lyse the cells. The cell plate was left to stand at room temperature for 20 min to stabilize luminescence signals, and the luminescence value of each well was scanned by a Spectramax M3 multi-functional microplate reader (Molecular Devices) at full wavelength.
Test samples: example compounds of the present invention and cabozantinib (positive control compound).
Data analysis: cell viability was calculated for compounds at various concentrations using the following formula:
Cell viability(%)=(Lumtest compound−Lumculture solution control)/(Lumcell control−Lumculture solution control)×100%,
where Lum refers to the luminescence value of each well of the test compound plate read by the multi-functional microplate reader.
The data were analyzed using GraphPad Prism 7.0 software, fitted with nonlinear S-curve regression to give dose-response curves, and IC50 values were calculated therefrom.

IC50 [1] [nM]	IC50 [2] [nM]	SMILES	IC50 [3] [nM]
19	19	COc1cc2nccc(Oc3ccc(NC(=O)c4cc(C)c(CN)n(-c5ccc(F)cc5)c4=O)cc3F)c2cc1OC [Example 26, 6-(aminomethyl)-N-(4-((6,7-dimethoxyquinolin-4-yl)oxy)-3-fluorophenyl)-1-(4-fluorophenyl)-5-methyl-2-oxo-1,2-dihydro-1,2-dihydropyridine-3-carboxamide]	132
12	12	CCn1cc(-c2cnc(N)c(-c3ccc(NC(=O)c4cc(C)c(C#N)n(-c5ccc(F)cc5)c4=O)cc3F)c2)cn1 [Example 18, N-(4-(2-amino-5-(1-ethyl-1H-pyrazol-4-yl)pyridin-3-yl)-3-fluorophenyl)-6-cyano-1-(4-fluorophenyl)-5-methyl-2-oxo-1,2-dihydropyridine-3-carboxamide]	298
